Earlier results as cited in US20230079480A1, “STABLE NON-AQUEOUS COMPOSITIONS OF FUNCTIONAL INGREDIENTS AND METHODS OF MAKING THE SAME” (Nulixir Inc., priority 2021, published 2023).
Read-outs that look alike come from different tables or passages of the source.

Assays:
[1] = in vivo
[2] = not given; remark: listed apart in the source
[3] = water and n-octanol reference phases, pH=7 unless stated otherwise

Compound | log P [3] | also measured
CC(=O)OC1C=CC(=O)N(C(=O)CCc2ccccc2)C1 (stereo not drawn) [pipermethystine] | ~1.8 | 
CC(C)=C[C@H]1C[C@](C)(O)[C@@H]2[C@H]3CC[C@@H]4[C@@]5(C)CC[C@H](O[C@@H]6OC[C@H](O)[C@H](O[C@@H]7O[C@H](CO)[C@@H](O)[C@H](O)[C@H]7O)[C@H]6O[C@@H]6O[C@@H](CO)[C@H](O)[C@H]6O)C(C)(C)[C@@H]5CC[C@@]4(C)[C@@]34CO[C@@]2(C4)O1 [bacopaside X] |  | log P (pH 7): ~2.2
CC(C)=CCC[C@](C)(O[C@@H]1O[C@H](CO)[C@@H](O)[C@H](O)[C@H]1O)[C@H]1CC[C@]2(C)[C@@H]1[C@H](O)C[C@@H]1[C@@]3(C)CC[C@H](O)C(C)(C)[C@@H]3[C@@H](O[C@@H]3O[C@H](CO)[C@@H](O)[C@H](O)[C@H]3O)C[C@]12C [ginsenoside rg1] |  | log P (pH 7): ~0.8
COC1=CC(=O)O[C@@H](CCc2ccc3c(c2)OCO3)C1 [7,8-dihydromethysticin] | ~2.2 | 
COc1cc([C@H]2Oc3cc(O)c4c(=O)c(O)c(-c5ccc(O)cc5)oc4c3O[C@@H]2CO)ccc1O [rhodiolin] | ~2 | 
Cn1c(=O)c2c(n(C)c1=O)n(C)c(=O)n2C [theacrine] | ~−1.06 | 
bacopaside B | ~2.8 | 
COC1=CC(=O)OC(/C=C/c2ccc(OC)cc2)C1 (stereo not drawn) [5,6-dihydroyangonin] | ~2.5 | 
CC1=C(CO)C(=O)O[C@@H]([C@@H](C)[C@H]2CC[C@H]3[C@@H]4C[C@H](Cl)[C@]5(O)[C@@H](O)C=CC(=O)[C@]5(C)[C@H]4CC[C@]23C)C1 [6a-chloro-5b-hydroxywithaferin A] | ~3.2 | 
COc1cc(/C=C/c2ccccc2)oc(=O)c1 [5,6-dehydrokawain] | ~2.9 | 
COc1ccc([C@@]23CCC(=O)C[C@@H]2N(C)CC3)cc1OC [mesembrine] | ~1.5 | 
CC(C)=C[C@H]1C[C@](C)(O)[C@H]2[C@H]3CC[C@@H]4[C@@]5(C)CC[C@H](O[C@@H]6O[C@H](CO)[C@@H](O)[C@H](O[C@@H]7O[C@H](CO)[C@@H](O)[C@H](O)[C@H]7O)[C@H]6O[C@@H]6O[C@@H](CO)[C@H](O)[C@H]6O)C(C)(C)[C@@H]5CC[C@@]4(C)[C@@]34CO[C@@]2(C4)O1 [bacoside A3] |  | log P (pH 7): ~2.1
hericerin | ~6.4 | 
COc1ccc([C@@]23C=CC(=O)C[C@@H]2N(C)CC3)cc1OC [mesembrenone] |  | log P (pH 7): ~1.3
N#C[C@@]1(O[C@@H]2O[C@H](CO)[C@@H](O)[C@H](O)[C@H]2O)C=C[C@@H](O)C1 [tetraphyllin B] | ~−2.5 | 
COc1cc2c(c(OC)c1OC)-c1c(cc(OC)c(OC)c1OC)C[C@H](C)[C@H](C)C2 [(−)-schisandrin A] | ~3.6 | 

Compound | log P [3] | also measured
tortuosomine | ~3 | 
COc1cc(/C=C\c2ccc(OC)c(O)c2)oc(=O)c1 [11-hydroxyyangonin] | ~2.2 | 
herinacine A | ~2.5 | 
schisandroside C | ~1.6 | 
COc1ccc(CCc2cc(OC)cc(=O)o2)cc1 [7,8-dihydroyangonin] | ~2.9 | 
CC(C)=CCC[C@](C)(O[C@@H]1O[C@H](CO[C@@H]2O[C@H](CO)[C@@H](O)[C@H](O)[C@H]2O)[C@@H](O)[C@H](O)[C@H]1O)[C@H]1CC[C@]2(C)[C@@H]1[C@H](O)C[C@@H]1[C@@]3(C)CC[C@H](O[C@@H]4O[C@H](CO)[C@@H](O)[C@H](O)[C@H]4O[C@@H]4O[C@H](CO)[C@@H](O)[C@H](O)[C@H]4O)C(C)(C)[C@@H]3CC[C@]12C [ginsenoside rb1] |  | log P (pH 7): ~−1
(R)-kawain | ~2.7 | 
COc1ccc2cc3[n+](cc2c1OC)CCc1cc2c(cc1-3)OCO2 [berberine] |  | bioavailability [1]: below 1%; solubility in ethanol as a function of water content [2]: decreases rapidly with water content
COc1ccc(C23C=CC(O)CC2N(C)CC3)cc1OC (stereo not drawn) [mesembrenol] |  | log P (pH 7): ~2.4
COc1cc2c(c(OC)c1OC)-c1c(cc(OC)c(OC)c1OC)C[C@](C)(O)[C@@H](C)C2 [schisandrol A] | ~3.4 | 
CC(C)=C[C@@H]1CO[C@]23C[C@]4(CO2)[C@H](CC[C@@H]2[C@@]5(C)CC[C@H](O[C@@H]6OC[C@H](O)[C@H](O[C@@H]7O[C@H](CO)[C@@H](O)[C@H](O)[C@H]7O)[C@H]6O[C@@H]6O[C@@H](CO)[C@H](O)[C@H]6O)C(C)(C)[C@@H]5CC[C@]24C)[C@H]3[C@@]1(C)O [bacopasaponin C] |  | log P (pH 7): ~2
O=CC=Cc1ccccc1 [Cinnamaldehyde] |  | inhibitory activity against fungi (many strains of fungi): strong inhibitory activity against many strains of fungi
COc1c2c(cc3c1-c1c(cc4c(c1OC)OCO4)C[C@H](C)[C@H](C)C3)OCO2 [(−)-schisandrin C] | ~3.5 | 
COc1cc2c(c(OC)c1OC)-c1c(cc(OC)c(OC)c1OC)C[C@](C)(O)[C@@H](C)C2 [(+)-schisandrin] | ~5 | 
COc1nc2c(c(=O)n1C)n(C)c(=O)n2C [methylliberine] | ~−0.083 | 
COc1cc2c(c(OC)c1OC)-c1c(cc3c(c1OC)OCO3)CC(C)C(C)C2 (single isomer, unassigned; (-)) [(−)-schisandrin B] | ~4 | 
